Source: patent publication US20050107289A1, “Anti-microbial peptides and compositions” (priority 2001, published 2005)
In brackets after ≈: the same amount, converted by molar mass. Where a name gives a salt, the structure may show the parent alone. Read-outs that look alike come from different tables or passages of the source. Non-standard residues stand in square brackets, D forms with d. Residues, ends and D or L forms follow the SMILES beside them.

Experiments:
[1] = Human; cited from earlier work
S. aureus ATCC 33592 = test: microbe, parasite or virus in culture; format: cell-based, Staphylococcus aureus; details: for MIC: Staphylococcus aureus
Protocol: (§1) The antimicrobial activity of the peptides was determined using a broth dilution assay essentially as descried in the guidelines of the National Committee for […] (NCCLS) [National Committee for Clinical Laboratory Standards. Methods for dilution antimicrobial susceptibility tests for bacteria that grow aerobically. Fourth edition. Approved Standard (1997). Document M7-A4. […] The microdilution method has the advantages of requiring less amount of peptide for each assay and the possibility of multiple simultaneous inoculations and was used in most studies. Several of the strains of bacteria tested are further described in Table 3.
(§2) Preparation of peptide solutions. Stock peptide solutions were prepared in 5% DMSO in aq. sucrose (9%). Determination of peptide concentrations was done by quantitative HPLC analysis using known concentrations of internal standards and/or by measuring UV absorption of tryptophane-containing peptide solutions in H2O (λ=280 εTrp: 5690). Serial 2-fold dilutions were made in the above DMSO/aq. sucrose (9%) mixture with concentrations ranging approximately 400-2 μg/ml and aliquots were dispensed in test tubes (100 μl) for the macrodilution test or in microtiter plates (20 μl) for the microdilution assays.
(§3) Inoculum preparation. Overnight cultures of different microorganisms grown in suitable media were diluted 4000 times to an approximate inoculum size of 2.5×10^5 cfu/ml.
(§4) Macrodilution method. Macrodilution methods were performed using procedures similar to those described in the National Committee for Clinical Laboratory Standards. Methods for dilution antimicrobial susceptibility tests for bacteria that grow aerobically. Fourth edition. Approved Standard (1997). Document M7-A4. (NCCLS,Villanova, Pa., 1997). Two ml aliquots of the above inoculum were dispensed to test tubes containing different peptide solutions.
(§5) Microdilution method. Microdilution methods were performed using procedures similar to those described in the National Committee for Clinical Laboratory Standards. Methods for dilution antimicrobial susceptibility tests for bacteria that grow aerobically. Fourth edition. Approved Standard (1997). Document M7-A4.

E. faecium SP180 = test: microbe, parasite or virus in culture; format: cell-based, Enterococcus faecium; details: for MIC: Enterococcus faecium
Protocol: as §1, §2, §3, §4, §5

H. influenzae ATCC 49247 = test: microbe, parasite or virus in culture; format: cell-based, Hemophilus influenzae; details: for MIC: Haemophilus influenzae
Protocol: as §1, §2, §3, §4, §5

murine red blood cells = test: Red blood cell hemolysis; format: cell-based, mouse; parameters: RBC Hemolysis (HD50): unit not given here
Summary of the method: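 Washed murine erythrocytes at 5% in saline with 10% FBS were exposed to serial peptide dilutions for 30 min at 37° C. Supernatant absorbance at 560 nm was read, with saline as 0% and 1% Triton X-100 as 100% hemolysis.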

E. faecalis ATCC 51299 = test: microbe, parasite or virus in culture; format: cell-based, Enterococcus faecalis; details: for MIC: Enterococcus faecalis
Protocol: as §1, §2, §3, §4, §5

[2] = test system: E. coli (EL744) K12 (tolC::kan); test: microbe, parasite or virus in culture; format: cell-based, Escherichia coli; details: for MIC: Escherichia coli, read-out: E. coli (EL744) K12 (tolC::kan) MIC; for E. coli (EL744) K12 (tolC::kan) MIC: MHII broth
Protocol: as §1, §2, §3, §4, §5

E. coli (K12) = test: microbe, parasite or virus in culture; format: cell-based, Escherichia coli; details: for MIC: Escherichia coli, read-out: E. coli (K12) MIC
Protocol: as §1, §2, §3, §4, §5

[3] = test system: S. aureus (MRSA) ATCC 33591; format: cell-based, Staphylococcus aureus; details: for MRSA (in vitro activity): Table 9, media b: cation adjusted Meuller Hinton broth (MHBII)
Summary of the method: (§6)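 Broth macro- or microdilution MIC per NCCLS M7-A4. Peptides were serially 2-fold diluted in 5% DMSO/9% aqueous sucrose, about 400–2 μg/ml (dilution-series concentrations). Overnight cultures were diluted 4000-fold to an inoculum of about 2.5×10^5 cfu/ml.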

[4] = test system: vancomycin-resistant Enterococus faecalis (VRE)(ATCC 51575); format: cell-based, Enterococcus faecalis; parameters: key to VRE (in vitro activity): peptide concentration in μg/ml (broth dilution assay); details: Table 9; media c: Brain Heart Infusion (BHI)
Summary of the method: as §6

[5] = test system: S. aureus (MRSA) (ATCC No. 33592); test: Time-killing curve, S. aureus MRSA ATCC 33592; format: cell-based, Staphylococcus aureus
Protocol: The speed at which several of the cyclic peptides of the invention kill E. coli JM 109 (DE3), Enterococcus faecium SP 180 and S. aureus (MRSA) (ATCC No. 33591 and 33592) was further tested at room temperature and/or at 37° C. A lower temperature tends to enrich the bacterial cultures for mature bacteria because the bacteria are not growing quickly. […] The presence or absence of immature bacteria in the culture may influence the rate at which the bacteria are killed, because immature bacteria tend to be more susceptible to many forms of antibiotics.
FIGS. 9 and 10 illustrate the time course for killing S. aureus (MRSA) (ATCC No. 33592) with varying concentrations of cyclo[KSKWLWLW] cyclic peptide (SEQ ID NO:12) at room temperature and at 37° C. […] This may be due to growth of a few survivors after the residual cyclic peptide within the culture has been exhausted because the amount of peptide employed in that assay was below the MIC value.

E. coli JM109(DE3) = format: cell-based, Escherichia coli; details: JM109
Summary of the method: as §6

[6] = trypsin, α-chymotrypsin, subtilisin, blood plasma; RP-HPLC over 24 h
Protocol: Cyclic peptides having SEQ ID NO:13, 18, 26, and 29 were assayed for proteolytic susceptibility.

[7] = Single channel conductance in planar lipid membranes
Protocol: The ion transport properties of tetrapeptides cyclo[(β-Trp)4] and cyclo[(β-Trp-β-Leu)2], synthesized via established protocols, were studied in liposome-based assays and by single channel conductance measurements in planar lipid membranes. The observed conductance in 500 mM KCl with peptide concentrations of about […] in the subphase is 56 pS, corresponding to the rates of channel mediated K^+ transport of 1.9×10^7 ions s^−1 for both tetrapeptides.

[8] = ATCC33592, read-out: S. aureus ATCC 33592 MIC
[9] = SP180, read-out: E. faecium SP180 MIC
[10] = ATCC49247, HTM, read-out: H. influenzae ATCC 49247 MIC
[11] = ATCC51299, read-out: E. faecalis ATCC 51299 MIC

## CC[C@H]1OC(=O)[C@H](C)[C@@H](O[C@H]2C[C@@](C)(OC)[C@@H](O)[C@H](C)O2)[C@H](C)[C@@H](O[C@@H]2O[C@H](C)C[C@H](N(C)C)[C@H]2O)[C@](C)(O)C[C@@H](C)C(=O)[C@H](C)[C@@H](O)[C@]1(C)O [Erythromycin]
[1]
  Kel elimination rate constant: 0.58 h⁻¹
  T1/2 half life time: 1.2 h

## NC[C@H]1O[C@H](O[C@H]2[C@H](O)[C@@H](O[C@H]3O[C@H](CO)[C@@H](O)[C@H](N)[C@H]3O)[C@H](N)C[C@@H]2N)[C@H](O)[C@@H](O)[C@@H]1O [Kanamycin, reference compound]
S. aureus ATCC 33592; [8]
  MIC: > 128 mg/L
E. faecium SP180; [9]
  MIC: > 128 mg/L
H. influenzae ATCC 49247; [10]
  MIC: 4 mg/L (≈ 8.26 µM)
Murine red blood cells; mouse, 30 min
  RBC Hemolysis (HD50): >600
E. faecalis ATCC 51299; [11]
  MIC: > 128 mg/L
[2]
  MIC: > 128 mg/L
E. coli (K12); MHII broth
  MIC: 4 mg/L (≈ 8.26 µM)
[3]
  MRSA (in vitro activity): 150
[4]
  VRE (in vitro activity): >600

## CCn1cc(C(=O)O)c(=O)c2cc(F)c(N3CCNCC3)cc21 [Norfloxacin, reference compound]
S. aureus ATCC 33592; ATCC33592, MHII broth, read-out: S. aureus ATCC 33592 MIC
  MIC: 0.5 mg/L (≈ 1.57 µM)
E. faecium SP180; SP180, BHI broth, read-out: E. faecium SP180 MIC
  MIC: 32 mg/L (≈ 100 µM)
H. influenzae ATCC 49247; [10]
  MIC: 0.06 mg/L (≈ 0.188 µM)
Murine red blood cells; mouse, 30 min
  RBC Hemolysis (HD50): >360
E. faecalis ATCC 51299; ATCC51299, BHI broth, read-out: E. faecalis ATCC 51299 MIC
  MIC: 2 mg/L (≈ 6.26 µM)
[2]
  MIC: 0.016 mg/L (≈ 0.0501 µM)
E. coli (K12); MHII broth
  MIC: 0.06 mg/L (≈ 0.188 µM)
[3]
  MRSA (in vitro activity): <2.8
[4]
  VRE (in vitro activity): <2.8

## CC1(C)S[C@@H]2[C@H](NC(=O)Cc3ccccc3)C(=O)N2[C@H]1C(=O)O [Penicillin G, reference compound]
S. aureus ATCC 33592; MHII broth
  S. aureus ATCC 33592 MIC: 64 mg/L
E. faecium SP180; BHI broth
  E. faecium SP180 MIC: 128 mg/L
H. influenzae ATCC 49247; HTM
  H. influenzae ATCC 49247 MIC: 4 mg/L
E. faecalis ATCC 51299; BHI broth
  E. faecalis ATCC 51299 MIC: 0.5 mg/L
[5]; 512 μg/ml, 37° C.
  reduction of cfu: effective in reducing the number of cfu within four hours
[5]; room temperature, 0-8 hours, up to 512 μg/ml
  killing or reducing S. aureus (MRSA) population: no concentration of penicillin G assayed up to 512 μg/ml was effective
[2]
  E. coli (EL744) K12 (tolC::kan) MIC: 16 mg/L
E. coli (K12); MHII broth
  E. coli (K12) MIC: 32 mg/L

## CC(C)C[C@H]1NC(=O)[C@H](CCCNC(=N)N)NC(=O)[C@@H](CCCNC(=N)N)NC(=O)[C@H](Cc2c[nH]c3ccccc23)NC(=O)[C@@H](CC(C)C)NC(=O)[C@H](Cc2c[nH]c3ccccc23)NC1=O [SEQ ID NO:29, cyclo-(D-Arg-Arg-D-Leu-Trp-D-Leu-Trp)] (cyclo(R[dL]W[dL]W[dR]))
E. coli JM109(DE3)
  E. coli MIC: 5 mg/L
[6]
  proteolytic stability: stable
Murine red blood cells; red cells of murine
  Hemolysis HD50: 90 µg/mL
[3]; ATCC 33591
  S. aureus (MRSA) MIC: 35 mg/L

## CN[C@H](CC(C)C)C(=O)N[C@H]1C(=O)N[C@@H](CC(N)=O)C(=O)N[C@H]2C(=O)N[C@H]3C(=O)N[C@H](C(=O)N[C@H](C(=O)O)c4cc(O)cc(O)c4-c4cc3ccc4O)[C@H](O)c3ccc(c(Cl)c3)Oc3cc2cc(c3O[C@@H]2O[C@H](CO)[C@@H](O)[C@H](O)[C@H]2O[C@H]2C[C@](C)(N)[C@H](O)[C@H](C)O2)Oc2ccc(cc2Cl)[C@H]1O [Vancomycin, reference compound]
S. aureus ATCC 33592; [8]
  MIC: 0.5 mg/L (≈ 0.345 µM)
E. faecium SP180; [9]
  MIC: > 128 mg/L
H. influenzae ATCC 49247; ATCC49247, read-out: H. influenzae ATCC 49247 MIC
  MIC: 128 mg/L (≈ 88.3 µM)
Murine red blood cells; Table 9
  RBC Hemolysis (HD50): >240
E. faecalis ATCC 51299; [11]
  MIC: 32 mg/L (≈ 22.1 µM)
[1]
  CL total clearance: 66 mL/min
  Kel elimination rate constant: 0.12 h⁻¹
  T1/2 half life time: 6 h
  VD volume of distribution: 0.47 L/kg
[2]
  MIC: 128 mg/L (≈ 88.3 µM)
E. coli (K12)
  MIC: 128 mg/L (≈ 88.3 µM)
[3]
  MRSA (in vitro activity): VANCOMYCIN <1.8
[4]
  VRE (in vitro activity): >240

## CC(C)C[C@H]1NC(=O)[C@H](CCCCN)NC(=O)[C@@H](CCCCN)NC(=O)[C@H](Cc2c[nH]c3ccccc23)NC(=O)[C@@H](CC(C)C)NC(=O)[C@H](Cc2c[nH]c3ccccc23)NC1=O [[KKLWLW]-HCl, cyclo-(D-Lys-Lys-D-Leu-Trp-D-Leu-Trp)] (cyclo(K[dL]W[dL]W[dK]))
S. aureus ATCC 33592; ATCC 33592
  S. aureus ATCC 33592 MIC: 32 mg/L
E. faecium SP180; SP180
  E. faecium SP180 MIC: 16 mg/L
H. influenzae ATCC 49247; ATCC 49247
  H. influenzae ATCC 49247 MIC: >128 mg/L
E. faecalis ATCC 51299; ATCC 51299
  E. faecalis ATCC 51299 MIC: >128 mg/L
[2]
  E. coli (EL744) K12 (tolC::kan) MIC: 32 mg/L
E. coli (K12); K12
  E. coli (K12) MIC: >128 mg/L

## CC(C)C[C@H]1NC(=O)[C@H](CCCNC(=N)N)NC(=O)[C@@H](CCCNC(=N)N)NC(=O)[C@H](Cc2c[nH]c3ccccc23)NC(=O)[C@@H](CC(C)C)NC(=O)[C@H](Cc2c[nH]c3ccccc23)NC1=O [[RRLWLW]-HCl, cyclo-(D-Arg-Arg-D-Leu-Trp-D-Leu-Trp)] (cyclo(R[dL]W[dL]W[dR]))
S. aureus ATCC 33592; ATCC 33592
  S. aureus ATCC 33592 MIC: 32 mg/L
E. faecium SP180; SP180
  E. faecium SP180 MIC: 8 to 16 mg/L
H. influenzae ATCC 49247; ATCC 49247
  H. influenzae ATCC 49247 MIC: 8 to 16 mg/L
E. faecalis ATCC 51299; ATCC 51299
  E. faecalis ATCC 51299 MIC: 32 to 64 mg/L
[2]
  E. coli (EL744) K12 (tolC::kan) MIC: 8 mg/L
E. coli (K12); K12
  E. coli (K12) MIC: 16 mg/L

## cyclo[(β-Trp-β-Leu)2]
[7]; 500 mM KCl
  rate of channel mediated K+ transport: 1.9×10^7 ions s^−1
[7]; 500 mM KCl, peptide about 30 mM in the subphase
  observed conductance: 56 pS
[7]; similar conditions
  transport speed relative to gramicidin A: more than twice
